Structures can show the parent of a compound that is named as a salt.
Assay: eutectic enantioexcess (eeeu) / eutectic solubility of (S)-enantiomer form with corresponding racemic compound
Assay type: physicochemical
Experimental: The majority of racemic mixtures preferentially form racemic compounds (reference Jacques book). The saturation solubility of a racemic compound and the pure enantiomer in the presence of a solvent is known as the eutectic point. The ratio of the solubility, i.e., the “eutectic enantioexcess” (eeeu), is a useful parameter to assess the chiral upgrade capability for a given system. The eeeu is calculated from the relative solubility of the R- and S-enantiomers: eeeu=([major]−[minor])/([major]+[minor]), where [major] is the solubility of the major enantiomer at the eutectic, and [minor] is the solubility of the minor enantiomer at the eutectic. […] The eeeu can be dependent on temperature in all cases. […]
Physical characterization confirmed that the HCl salt of the racemic compound was a hydrate, which was determined to be a thermodynamically stable crystal form. […] The quantities of solvent and equipment capacity needed to provide chiral upgrade would be impractical and uneconomical. For instance, to upgrade from 90% ee to 98% ee, it was calculated to require 200 L solvent per kg starting material.
From this eeeu, it was calculated that achieving an upgrade from 90% ee to 98% ee would require 46 L solvent per kg starting material which, while an improvement, is still undesirable. […]

| absolute solubility | eutectic enantioexcess (eeeu) (hydrate with corresponding hydrate racemic compound, 22° C.) [%] | Structure (SMILES) |
| --- | --- | --- |
| quite low |  | O=C1CC[C@H](N2Cc3c(OCc4ccc(CN5CCOCC5)cc4)cccc3C2=O)C(=O)N1 [(S)-3-(4-((4-(morpholinomethyl)benzyl)oxy)-1-oxoisoindolin-2-yl)piperidine-2,6-dione hydrochloride] |
|  | 89.2 | O.O=C1CC[C@H](N2Cc3c(OCc4ccc(CN5CCOCC5)cc4)cccc3C2=O)C(=O)N1 [(S)-3-(4-((4-(morpholinomethyl)benzyl)oxy)-1-oxoisoindolin-2-yl)piperidine-2,6-dione hydrate] |

Reference: patent US9309220B2, “Processes for the preparation of (S)-3-(4- (4-(morpholinomethyl)benzyl)oxy)-1-oxoisoindolin-2-yl)piperidine-2,6-dione and pharmaceutically acceptable forms thereof” (Celgene Corporation, priority 2012, dated 2016)
